Where “and” joins values, the source holds several entries; their conditions need not be identical. Identical values can stand only once. Entries after “also recorded” stand apart in the source; their conditions may differ.
Columns and labels:
DNPI/VGLUT2 = molecular target: T1, DNPI/VGLUT2 (Rattus norvegicus, UniProt Q9JI12); experiment: 3H-L-glutamate uptake by membranes from PC12 cells expressing DNPI/VGLUT2; assay type: biochemical
T1 construct: To reconstruct the full open reading frame, the missing segment was amplified from rat brain cDNA by PCR; expressed in transfected cells; light membranes prepared from them
T1 sequence (Q9JI12 1-582): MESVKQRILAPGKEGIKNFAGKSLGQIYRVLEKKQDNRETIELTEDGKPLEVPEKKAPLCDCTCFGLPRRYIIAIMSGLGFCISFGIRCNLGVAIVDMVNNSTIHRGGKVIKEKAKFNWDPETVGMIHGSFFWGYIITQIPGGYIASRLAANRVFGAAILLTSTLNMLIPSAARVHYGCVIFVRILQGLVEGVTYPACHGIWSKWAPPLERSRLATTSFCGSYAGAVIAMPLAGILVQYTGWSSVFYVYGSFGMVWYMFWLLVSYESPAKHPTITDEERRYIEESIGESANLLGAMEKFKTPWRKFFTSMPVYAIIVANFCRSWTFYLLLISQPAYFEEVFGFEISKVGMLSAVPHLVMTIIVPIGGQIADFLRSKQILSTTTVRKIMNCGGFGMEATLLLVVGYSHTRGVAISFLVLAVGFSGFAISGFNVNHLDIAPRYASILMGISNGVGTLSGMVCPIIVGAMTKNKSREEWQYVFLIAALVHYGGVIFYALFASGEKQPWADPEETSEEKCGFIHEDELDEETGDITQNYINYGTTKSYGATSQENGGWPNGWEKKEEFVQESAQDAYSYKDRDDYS
Protocol: PC12 cells were grown in Dulbecco's modified Eagle's medium containing 10% equine serum, 5% calf serum and transfected by electroporation with the rat DNPI/VGLUT2 cDNA subcloned in the pcDNA3 vector containing an […] (Krantz et al. (2000) J. Cell Biol. 149). Stable transformants were selected for resistance to the neomycin analog G418 (500 μg/ml) and screened by immunofluorescence with the DNPI antibody, resulting in the identification of two independent clones with more than 80% of the cells expressing DNPI.
For membrane preparation, untransfected and DNPI-expressing PC12 cells were grown on 15 cm plates, washed with calcium- and magnesium-free PBS, collected in 0.32 M sucrose/10 mM HEPES-KOH, pH 7.4 (SH buffer) containing protease inhibitors (2 μg/ml leupeptin, 1 μg/ml pepstatin, 1 μg/ml E64, 0.2 mM diisopropylfluorphosphate, 2 μg/ml aprotinin, and 1.25 mM MgEGTA), homogenized using a ball bearing device and the homogenate sedimented at 1000 g for 5 min to remove nuclei and debris. The supernatant was then sedimented at 27,000 g for 35 min to remove heavier membranes. The remaining light membranes including small synaptic-like microvesicles were then sedimented at 210,000 g for 1 hour. The pellet was resuspended in SH buffer with protease inhibitors at ˜10 mg protein/ml.
To initiate the transport reaction, 20 μl membranes (˜200 μg protein) were added to 180 μl SH buffer containing 4 mM KCl, 4 mM MgSO4, […], and 100 μM ^3H-L-glutamate, with other additions noted in the text and figure legends. The reaction mixture was incubated at 29° C. for varying intervals, uptake was terminated by rapid filtration through Supor-200 membranes (Gelman) and the filters were washed rapidly four times with 1.5 ml cold 0.155 M potassium tartrate/10 mm HEPES-KOH, pH 7.4 before measuring the bound radioactivity by scintillation counting in 3 ml Cytoscint (ICN). Uptake specifically mediated by DNPI/VGLUT2 was determined by subtracting the background uptake of untransfected cell membranes from the uptake by transfected cell membranes. To examine the chloride dependence of transport, varying proportions of 0.14 M K gluconate and 0.14 M KCl were mixed in the standard reaction buffer (without sucrose) to vary the chloride concentration and maintain constant osmolarity. The ionophores nigericin and valinomycin used in FIG. 13E were prepared as 200× stock solutions in ethanol. The final ethanol concentration in the reaction mixture was 1%.

BNPI (VGLUT1) = molecular target: T2, BNPI (VGLUT1) (Rattus norvegicus, UniProt Q62634); experiment: acridine orange fluorescence quenching (vesicle acidification) of BNPI-expressing membranes; assay type: biochemical; conditions: for acidification of BNPI-expressing versus control membranes: 90 mM chloride (KCl)
T2 construct: expressed in transfected cells; light membranes prepared from them
T2 sequence (Q62634 1-560): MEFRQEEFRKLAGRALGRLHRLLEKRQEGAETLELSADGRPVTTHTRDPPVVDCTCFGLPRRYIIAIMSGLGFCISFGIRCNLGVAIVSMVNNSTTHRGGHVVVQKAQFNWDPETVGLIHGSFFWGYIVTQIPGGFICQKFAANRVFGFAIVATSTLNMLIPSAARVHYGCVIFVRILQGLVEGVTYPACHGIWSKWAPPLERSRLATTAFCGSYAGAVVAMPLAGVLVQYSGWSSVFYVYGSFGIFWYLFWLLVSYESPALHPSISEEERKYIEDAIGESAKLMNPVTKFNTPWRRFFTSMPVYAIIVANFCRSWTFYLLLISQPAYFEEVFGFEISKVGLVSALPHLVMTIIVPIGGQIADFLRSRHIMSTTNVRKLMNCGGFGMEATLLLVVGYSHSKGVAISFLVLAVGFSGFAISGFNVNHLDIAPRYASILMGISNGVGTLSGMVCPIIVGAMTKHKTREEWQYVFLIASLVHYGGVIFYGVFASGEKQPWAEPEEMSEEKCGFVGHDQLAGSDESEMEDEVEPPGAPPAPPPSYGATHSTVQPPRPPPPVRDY
Protocol: Native synaptic vesicles acidify during glutamate uptake (Maycox et al. (1988) J. Biol. Chem., 263: 15423). Glutamate presumably serves as a counterion for protons and dissipates ΔΨ, enabling the vacuolar H+-ATPase to generate a larger ΔpH, but cotransport of H+ with glutamate remains an alternative possibility. To determine whether acidification also accompanies glutamate transport by BNPI, we used the quenching of acridine orange fluorescence to measure vesicle pH. Membranes (200 μg of protein) were diluted into 2 ml of 0.3 M sucrose and 10 mM tris-Mops (pH 7.4) containing 4 mM MgSO4 and 5 μM acridine orange and incubated at 37° C. with continuous stirring. Fluorescence was monitored with a Hitachi F4500 spectrofluorimeter at an excitation wavelength of 492 nm and emission of 530 nm. Separate measurements were made with at least three different membrane preparations for wild-type and transfected cells; representative tracings are shown in FIG. 5.

SMILES	specific 3H-L-glutamate uptake by DNPI at high chloride (DNPI/VGLUT2; 140 mM chloride)	chloride concentration for maximal 3H-L-glutamate uptake by DNPI (DNPI/VGLUT2; uptake at 5 minutes)	acidification of BNPI-expressing versus control membranes (BNPI (VGLUT1))	acidification of BNPI-expressing versus control membranes (BNPI (VGLUT1); listed as KCl)	inhibition of DNPI-mediated 3H-L-glutamate uptake (DNPI/VGLUT2; 10 mM, uptake at 5 minutes)	Km (DNPI/VGLUT2; initial rate at 1 minute, 0.03-10 mM L-glutamate, Lineweaver-Burke)	acidification (lumenal pH) of membranes expressing BNPI (BNPI (VGLUT1); 10 mM glutamate, with ATP and 4 mM KCl)	effect on rate of chloride-dependent acidification of BNPI membranes (BNPI (VGLUT1); 10 mM, KCl 20, 50, 140 mM)	effect on acidification of BNPI-expressing membranes by chloride (BNPI (VGLUT1); 10 mM, listed as Glutamate)	effect on acidification of BNPI-expressing membranes by chloride (BNPI (VGLUT1); 10 mM, listed as glutamate)
Cl [chloride]	little or no specific uptake is detectable	2 to 10 mM and ~2 mM	produces more acidification	considerably greater	–	–	–	–	–	–
N[C@@H](CCC(=O)O)C(=O)O [L-Glutamate]	–	–	–	–	markedly inhibits	4.7 mM and ~5 mM	reduced the lumenal pH; also recorded: acidifies membranes expressing BNPI	reduces the rate of acidification	blocks this chloride conductance; also recorded: reduces the acidification	decreased the acidification produced by chloride
